Experimental data reported in PubChem BioAssay AID1963977 (Molecular Pharmacology Branch, DTP, NCI, 2024).
pIC50: −log10 of the molar value.

Tested on: 624824-186-R-J3-PDC multicell spheroids, viability
Experiment: Anticancer human tumor 624824-186-R-J3-PDC patient-derived colon adenocarcinoma cell line growth inhibition [PI3K]
Details: for pIC50: curve of first compound; for viability, T/C: stronger effect = lower value
Outline: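 Tumor cells were combined with HUVEC and MSCs into spheroids, then dosed with PI3K-inhibitor combinations over half-log ranges capped near clinical Cmax or 10 microM.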

[1] = second compound 0.00316 µM, first compound 0.0316 µM
[2] = second compound 0.00316 µM, first compound 0.1 µM
[3] = second compound 0.00316 µM, first compound 0.316 µM
[4] = second compound 0.00316 µM, first compound 1 µM
[5] = second compound 0.00316 µM, first compound 3.16 µM
[6] = second compound 0.00316 µM, first compound 10 µM
[7] = second compound 0.01 µM, first compound 0.0316 µM
[8] = second compound 0.01 µM, first compound 0.1 µM
[9] = second compound 0.01 µM, first compound 0.316 µM
[10] = second compound 0.01 µM, first compound 1 µM
[11] = second compound 0.01 µM, first compound 3.16 µM
[12] = second compound 0.01 µM, first compound 10 µM
[13] = second compound 0.0316 µM, first compound 0.0316 µM
[14] = second compound 0.0316 µM, first compound 0.1 µM
[15] = second compound 0.0316 µM, first compound 0.316 µM
[16] = second compound 0.0316 µM, first compound 1 µM
[17] = second compound 0.0316 µM, first compound 3.16 µM
[18] = second compound 0.0316 µM, first compound 10 µM
[19] = second compound 0.1 µM, first compound 0.0316 µM
[20] = second compound 0.1 µM, first compound 0.1 µM
[21] = second compound 0.1 µM, first compound 0.316 µM
[22] = second compound 0.1 µM, first compound 1 µM
[23] = second compound 0.1 µM, first compound 3.16 µM
[24] = second compound 0.1 µM, first compound 10 µM
[25] = second compound 0.316 µM, first compound 0.0316 µM
[26] = second compound 0.316 µM, first compound 0.1 µM
[27] = second compound 0.316 µM, first compound 0.316 µM
[28] = second compound 0.316 µM, first compound 1 µM
[29] = second compound 0.316 µM, first compound 3.16 µM
[30] = second compound 0.316 µM, first compound 10 µM
[31] = second compound 1 µM, first compound 0.0316 µM
[32] = second compound 1 µM, first compound 0.1 µM
[33] = second compound 1 µM, first compound 0.316 µM
[34] = second compound 1 µM, first compound 1 µM
[35] = second compound 1 µM, first compound 3.16 µM
[36] = second compound 1 µM, first compound 10 µM
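Further: spheroids exposed to agents for seven days before luminescence read.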
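Wherever viability, T/C is given: luminescent signal used as a stand-in for spheroid viability; percent viability relative to DMSO vehicle control wells taken as 100%.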

SMILES: C=CC(=O)N1CCN(c2nc(=O)n(-c3c(C)ccnc3C(C)C)c3nc(-c4c(O)cccc4F)c(F)cc23)C(C)C1 (stereo unspecified) + COc1c(OCCCN2CCOCC2)ccc2c3n(c(=NC(=O)c4cnc(N)nc4)nc12)CCN3
- pIC50 (second compound 0.00316 µM): < 5.00
- pIC50 (second compound 0.01 µM): < 5.00
- pIC50 (second compound 0.0316 µM): < 5.00
- pIC50 (second compound 0.1 µM): < 5.00
- pIC50 (second compound 0.316 µM): 5.46
- pIC50 (second compound 1 µM): > 7.50
- viability, T/C [1]: 119%
- viability, T/C [2]: 100%
- viability, T/C [3]: 112%
- viability, T/C [4]: 97%
- viability, T/C [5]: 100%
- viability, T/C [6]: 99.1%
- viability, T/C [7]: 93.1%
- viability, T/C [8]: 96.6%
- viability, T/C [9]: 104%
- viability, T/C [10]: 108%
- viability, T/C [11]: 97.7%
- viability, T/C [12]: 98.8%
- viability, T/C [13]: 99.8%
- viability, T/C [14]: 101%
- viability, T/C [15]: 92.9%
- viability, T/C [16]: 99%
- viability, T/C [17]: 89.7%
- viability, T/C [18]: 92.7%
- viability, T/C [19]: 78.1%
- viability, T/C [20]: 79.3%
- viability, T/C [21]: 78.7%
- viability, T/C [22]: 80.6%
- viability, T/C [23]: 80.2%
- viability, T/C [24]: 72.7%
- viability, T/C [25]: 48.7%
- viability, T/C [26]: 53.1%
- viability, T/C [27]: 53.2%
- viability, T/C [28]: 46.7%
- viability, T/C [29]: 51.8%
- viability, T/C [30]: 41.2%
- viability, T/C [31]: 28.9%
- viability, T/C [32]: 30.5%
- viability, T/C [33]: 29%
- viability, T/C [34]: 25.6%
- viability, T/C [35]: 26.3%
- viability, T/C [36]: 33.9%

SMILES: Cn1ncnc1[C@H]1c2n[nH]c(=O)c3cc(F)cc(c23)N[C@@H]1c1ccc(F)cc1 + CC(Nc1ccc2c(c1)OCCn1cc(N3C(=O)OCC3C(F)F)nc1-2)C(N)=O
- pIC50 (second compound 0.00316 µM): < 7.00
- pIC50 (second compound 0.01 µM): < 7.00
- pIC50 (second compound 0.0316 µM): < 7.00
- pIC50 (second compound 0.1 µM): < 7.00
- pIC50 (second compound 0.316 µM): < 7.00
- pIC50 (second compound 1 µM): < 7.00
- viability, T/C (second compound 0.00316 µM, first compound 0.000316 µM): 102%
- viability, T/C (second compound 0.00316 µM, first compound 0.001 µM): 93.5%
- viability, T/C (second compound 0.00316 µM, first compound 0.00316 µM): 101%
- viability, T/C (second compound 0.00316 µM, first compound 0.01 µM): 99.7%
- viability, T/C [1]: 87.8%
- viability, T/C [2]: 111%
- viability, T/C (second compound 0.01 µM, first compound 0.000316 µM): 97.8%
- viability, T/C (second compound 0.01 µM, first compound 0.001 µM): 93.6%
- viability, T/C (second compound 0.01 µM, first compound 0.00316 µM): 102%
- viability, T/C (second compound 0.01 µM, first compound 0.01 µM): 95.7%
- viability, T/C [7]: 101%
- viability, T/C [8]: 92.1%
- viability, T/C (second compound 0.0316 µM, first compound 0.000316 µM): 107%
- viability, T/C (second compound 0.0316 µM, first compound 0.001 µM): 99.7%
- viability, T/C (second compound 0.0316 µM, first compound 0.00316 µM): 97.5%
- viability, T/C (second compound 0.0316 µM, first compound 0.01 µM): 92.8%
- viability, T/C [13]: 97.4%
- viability, T/C [14]: 106%
- viability, T/C (second compound 0.1 µM, first compound 0.000316 µM): 94.7%
- viability, T/C (second compound 0.1 µM, first compound 0.001 µM): 105%
- viability, T/C (second compound 0.1 µM, first compound 0.00316 µM): 100%
- viability, T/C (second compound 0.1 µM, first compound 0.01 µM): 99.8%
- viability, T/C [19]: 104%
- viability, T/C [20]: 106%
- viability, T/C (second compound 0.316 µM, first compound 0.000316 µM): 93.8%
- viability, T/C (second compound 0.316 µM, first compound 0.001 µM): 99.3%
- viability, T/C (second compound 0.316 µM, first compound 0.00316 µM): 98.2%
- viability, T/C (second compound 0.316 µM, first compound 0.01 µM): 91.6%
- viability, T/C [25]: 96.7%
- viability, T/C [26]: 100%
- viability, T/C (second compound 1 µM, first compound 0.000316 µM): 90.6%
- viability, T/C (second compound 1 µM, first compound 0.001 µM): 90.3%
- viability, T/C (second compound 1 µM, first compound 0.00316 µM): 94%
- viability, T/C (second compound 1 µM, first compound 0.01 µM): 91.9%
- viability, T/C [31]: 99.1%
- viability, T/C [32]: 86.6%

SMILES: CC1(C)CCC(CN2CCN(c3ccc(C(=O)NS(=O)(=O)c4ccc(NCC5CCOCC5)c([N+](=O)[O-])c4)c(Oc4cnc5[nH]ccc5c4)c3)CC2)=C(c2ccc(Cl)cc2)C1 + CC(Nc1ccc2c(c1)OCCn1cc(N3C(=O)OCC3C(F)F)nc1-2)C(N)=O
- pIC50 (second compound 0.00316 µM): 5.03
- pIC50 (second compound 0.01 µM): 5.06
- pIC50 (second compound 0.0316 µM): 5.02
- pIC50 (second compound 0.1 µM): 5.03
- pIC50 (second compound 0.316 µM): < 5.00
- pIC50 (second compound 1 µM): 5.04
- viability, T/C [1]: 104%
- viability, T/C [2]: 88.6%
- viability, T/C [3]: 102%
- viability, T/C [4]: 90.9%
- viability, T/C [5]: 112%
- viability, T/C [6]: 47.3%
- viability, T/C [7]: 105%
- viability, T/C [8]: 92%
- viability, T/C [9]: 99.5%
- viability, T/C [10]: 106%
- viability, T/C [11]: 114%
- viability, T/C [12]: 43.2%
- viability, T/C [13]: 100%
- viability, T/C [14]: 105%
- viability, T/C [15]: 89.4%
- viability, T/C [16]: 99%
- viability, T/C [17]: 117%
- viability, T/C [18]: 48.3%
- viability, T/C [19]: 88.7%
- viability, T/C [20]: 99.9%
- viability, T/C [21]: 90.9%
- viability, T/C [22]: 109%
- viability, T/C [23]: 102%
- viability, T/C [24]: 47.1%
- viability, T/C [25]: 98.5%
- viability, T/C [26]: 95.3%
- viability, T/C [27]: 99.2%
- viability, T/C [28]: 86.3%
- viability, T/C [29]: 89%
- viability, T/C [30]: 53.6%
- viability, T/C [31]: 82.7%
- viability, T/C [32]: 85.5%
- viability, T/C [33]: 85.7%
- viability, T/C [34]: 81.4%
- viability, T/C [35]: 70.2%
- viability, T/C [36]: 48.2%
